Test results reported in ChEMBL document CHEMBL6127020, “Discovery of aminopiperidine based potent & novel topoisomerase inhibitor with broad spectrum anti-bacterial activity” (Bioorg Med Chem Lett, 2024).
pIC50: −log10 of the molar value. Values after ≈ are worked out from the molar mass of the structure shown.

How the values were obtained:
Escherichia coli = assay: Antibacterial activity against Escherichia coli ATCC 25922 assessed as inhibition of bacterial growth; type: functional
Staphylococcus aureus = assay: Antibacterial activity against Staphylococcus aureus ATCC 29213 assessed as inhibition of bacterial growth; type: functional
Cytochrome P450 2C19 = Cytochrome P450 2C19 (Homo sapiens, UniProt P33261); assay: Inhibition of CYP2C19 (unknown origin) at 10 uM; type: ADME
Cytochrome P450 2D6 = Cytochrome P450 2D6 (Homo sapiens, UniProt P10635); assay: Inhibition of CYP2D6 (unknown origin) at 10 uM; type: ADME
DNA gyrase = DNA gyrase (Staphylococcus aureus, UniProt P0A0K8+P20831); assay: Inhibition of Staphylococcus aureus DNA gyrase; type: protein-complex assay
Cytochrome P450 1A2 = molecular target: T1, Cytochrome P450 1A2 (Homo sapiens, UniProt P05177); assay: Inhibition of CYP1A2 (unknown origin) at 10 uM; type: ADME
T1 sequence (P05177 whole entry): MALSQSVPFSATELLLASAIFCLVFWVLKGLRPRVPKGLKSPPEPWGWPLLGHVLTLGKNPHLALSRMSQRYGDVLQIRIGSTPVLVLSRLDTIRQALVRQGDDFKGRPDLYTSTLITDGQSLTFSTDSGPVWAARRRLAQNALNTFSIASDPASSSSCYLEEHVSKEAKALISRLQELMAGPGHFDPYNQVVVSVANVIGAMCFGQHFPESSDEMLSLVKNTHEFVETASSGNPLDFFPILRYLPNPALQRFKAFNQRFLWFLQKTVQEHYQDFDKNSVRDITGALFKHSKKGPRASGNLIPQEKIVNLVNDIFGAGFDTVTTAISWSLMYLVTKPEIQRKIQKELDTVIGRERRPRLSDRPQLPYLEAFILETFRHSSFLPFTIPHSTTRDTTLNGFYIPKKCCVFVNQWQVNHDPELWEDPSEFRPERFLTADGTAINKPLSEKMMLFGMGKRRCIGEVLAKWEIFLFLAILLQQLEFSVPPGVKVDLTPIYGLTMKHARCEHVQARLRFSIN

Topoisomerase IV = Topoisomerase IV (Staphylococcus aureus, UniProt P0C1S7+P0C1U9); assay: Inhibition of Staphylococcus aureus DNA topoisomerase 4; type: protein-complex assay
Cytochrome P450 3A4 = Cytochrome P450 3A4 (Homo sapiens, UniProt P08684); assay: Inhibition of CYP3A4 (unknown origin) at 10 uM; type: ADME
Cytochrome P450 2C8 = molecular target: T2, Cytochrome P450 2C8 (Homo sapiens, UniProt P10632); assay: Inhibition of CYP2C8 (unknown origin) at 10 uM; type: ADME
T2 sequence (P10632 whole entry): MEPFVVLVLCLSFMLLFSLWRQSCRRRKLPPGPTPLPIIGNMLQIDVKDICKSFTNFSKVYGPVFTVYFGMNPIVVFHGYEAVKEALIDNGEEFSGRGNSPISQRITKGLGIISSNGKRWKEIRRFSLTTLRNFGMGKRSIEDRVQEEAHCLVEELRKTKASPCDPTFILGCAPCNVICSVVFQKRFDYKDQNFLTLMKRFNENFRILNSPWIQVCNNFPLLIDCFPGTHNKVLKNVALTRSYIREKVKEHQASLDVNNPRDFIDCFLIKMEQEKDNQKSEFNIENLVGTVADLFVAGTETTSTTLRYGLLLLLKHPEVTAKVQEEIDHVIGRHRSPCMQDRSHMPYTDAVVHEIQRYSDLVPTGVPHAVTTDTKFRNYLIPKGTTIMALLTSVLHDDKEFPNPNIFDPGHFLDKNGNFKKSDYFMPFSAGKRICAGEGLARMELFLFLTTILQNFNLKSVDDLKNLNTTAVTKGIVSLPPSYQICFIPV

[1] = Aqueous solubility of compound; type: physicochemical; settings: buffer
[2] = MRT in C57 mouse at 1 mg/kg,iv administration; type: ADME, organism-based; settings: in vivo
[3] = Tmax in C57 mouse at 3 mg/kg,po administration; type: ADME, organism-based; settings: in vivo
[4] = Plasma protein binding in human; type: ADME, cell-free; settings: read-out: PPB (converted)
[5] = Volume of distribution at steady state in C57 mouse at 1 mg/kg,iv administration; type: ADME, organism-based; settings: in vivo, read-out: Vdss
[6] = Bioavailability in C57 mouse at 1 mg/kg,iv administration; type: ADME, organism-based; settings: in vivo
[7] = AUC (0 to t) in C57 mouse at 3 mg/kg,po administration; type: ADME, organism-based; settings: in vivo
[8] = Cmax in C57 mouse at 3 mg/kg,po administration; type: ADME, organism-based; settings: in vivo
[9] = Solubility of compound in PBS; type: physicochemical; settings: buffer
Pseudomonas aeruginosa = assay: Antibacterial activity against Pseudomonas aeruginosa assessed as inhibition of bacterial growth; type: functional
[10] = C0 in C57 mouse at 1 mg/kg,iv administration; type: ADME, organism-based; settings: in vivo
[11] = AUC (0 to t) in C57 mouse at 1 mg/kg,iv administration; type: ADME, organism-based; settings: in vivo
Acinetobacter baumannii = assay: Antibacterial activity against Acinetobacter baumannii assessed as inhibition of bacterial growth; type: functional
[12] = Clearance in C57 mouse at 1 mg/kg,iv administration; type: ADME, organism-based; settings: in vivo
[13] = Half life in C57 mouse at 1 mg/kg,iv administration; type: ADME, organism-based; settings: in vivo

Chain of Cytochrome P450 2D6 (P10635 whole entry): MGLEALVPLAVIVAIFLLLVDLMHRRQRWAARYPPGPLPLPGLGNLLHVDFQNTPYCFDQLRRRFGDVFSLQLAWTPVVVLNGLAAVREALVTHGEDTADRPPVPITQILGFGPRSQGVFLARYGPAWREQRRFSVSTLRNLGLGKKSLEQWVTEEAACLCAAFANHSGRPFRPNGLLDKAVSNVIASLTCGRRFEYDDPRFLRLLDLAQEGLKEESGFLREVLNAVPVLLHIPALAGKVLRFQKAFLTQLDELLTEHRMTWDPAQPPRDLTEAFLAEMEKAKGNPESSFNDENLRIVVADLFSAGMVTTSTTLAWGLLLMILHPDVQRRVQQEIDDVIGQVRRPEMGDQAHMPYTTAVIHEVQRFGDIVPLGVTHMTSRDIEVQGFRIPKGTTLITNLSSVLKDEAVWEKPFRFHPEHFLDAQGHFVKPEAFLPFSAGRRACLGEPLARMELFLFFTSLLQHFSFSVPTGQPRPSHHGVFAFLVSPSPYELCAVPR
Chain of Cytochrome P450 3A4 (P08684 whole entry): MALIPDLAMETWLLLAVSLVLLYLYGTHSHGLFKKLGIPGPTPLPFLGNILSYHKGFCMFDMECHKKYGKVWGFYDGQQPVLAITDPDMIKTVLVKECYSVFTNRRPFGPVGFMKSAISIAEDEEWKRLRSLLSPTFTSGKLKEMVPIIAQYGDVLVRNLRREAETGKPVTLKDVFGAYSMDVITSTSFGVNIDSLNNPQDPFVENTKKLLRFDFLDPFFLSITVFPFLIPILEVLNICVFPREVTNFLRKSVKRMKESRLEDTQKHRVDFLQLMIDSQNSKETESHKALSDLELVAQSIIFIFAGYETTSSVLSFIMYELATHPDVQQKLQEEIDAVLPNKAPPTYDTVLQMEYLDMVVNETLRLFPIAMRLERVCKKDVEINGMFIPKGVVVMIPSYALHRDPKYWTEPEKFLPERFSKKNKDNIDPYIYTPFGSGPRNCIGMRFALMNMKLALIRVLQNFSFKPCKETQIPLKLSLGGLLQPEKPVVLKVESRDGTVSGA
Chain of DNA gyrase (P0A0K8 whole entry): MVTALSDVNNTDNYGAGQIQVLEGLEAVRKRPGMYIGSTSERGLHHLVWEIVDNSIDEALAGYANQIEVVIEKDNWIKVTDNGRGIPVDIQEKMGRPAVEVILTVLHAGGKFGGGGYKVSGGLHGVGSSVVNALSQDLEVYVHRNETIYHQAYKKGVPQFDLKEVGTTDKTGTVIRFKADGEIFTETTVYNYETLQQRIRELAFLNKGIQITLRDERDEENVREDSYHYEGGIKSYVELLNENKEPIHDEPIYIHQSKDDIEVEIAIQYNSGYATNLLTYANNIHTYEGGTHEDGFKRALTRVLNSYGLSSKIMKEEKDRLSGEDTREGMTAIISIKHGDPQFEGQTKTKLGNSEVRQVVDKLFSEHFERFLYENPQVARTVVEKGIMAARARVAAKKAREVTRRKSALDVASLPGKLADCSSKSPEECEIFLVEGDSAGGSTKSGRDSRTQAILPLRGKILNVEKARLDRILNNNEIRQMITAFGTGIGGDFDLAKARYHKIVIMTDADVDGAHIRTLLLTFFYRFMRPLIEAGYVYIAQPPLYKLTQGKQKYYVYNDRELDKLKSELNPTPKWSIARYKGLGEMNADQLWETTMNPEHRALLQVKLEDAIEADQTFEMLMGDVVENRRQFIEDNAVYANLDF
Chain of DNA gyrase (P20831 whole entry): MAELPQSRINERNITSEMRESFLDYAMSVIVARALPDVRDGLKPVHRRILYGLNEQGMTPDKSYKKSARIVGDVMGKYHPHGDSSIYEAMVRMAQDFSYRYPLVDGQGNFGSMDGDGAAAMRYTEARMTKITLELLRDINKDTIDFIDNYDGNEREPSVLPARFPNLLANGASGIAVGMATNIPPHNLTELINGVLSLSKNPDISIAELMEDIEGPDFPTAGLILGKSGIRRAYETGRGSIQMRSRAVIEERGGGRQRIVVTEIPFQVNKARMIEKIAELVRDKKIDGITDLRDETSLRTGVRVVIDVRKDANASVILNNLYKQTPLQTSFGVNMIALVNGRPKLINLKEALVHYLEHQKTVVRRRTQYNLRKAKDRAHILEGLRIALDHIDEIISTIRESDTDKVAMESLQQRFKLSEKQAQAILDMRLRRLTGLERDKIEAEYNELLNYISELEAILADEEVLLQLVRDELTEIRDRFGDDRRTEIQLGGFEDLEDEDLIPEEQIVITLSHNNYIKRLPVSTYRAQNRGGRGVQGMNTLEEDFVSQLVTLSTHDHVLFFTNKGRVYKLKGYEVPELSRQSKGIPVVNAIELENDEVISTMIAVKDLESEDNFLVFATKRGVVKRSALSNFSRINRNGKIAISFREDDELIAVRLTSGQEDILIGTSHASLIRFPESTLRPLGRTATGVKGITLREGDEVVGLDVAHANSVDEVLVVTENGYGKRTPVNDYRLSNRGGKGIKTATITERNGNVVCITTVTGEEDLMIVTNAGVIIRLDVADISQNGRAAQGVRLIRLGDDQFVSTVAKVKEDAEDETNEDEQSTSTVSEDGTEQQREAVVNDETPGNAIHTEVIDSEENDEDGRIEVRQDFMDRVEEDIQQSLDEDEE
Chain of Cytochrome P450 2C19 (P33261 whole entry): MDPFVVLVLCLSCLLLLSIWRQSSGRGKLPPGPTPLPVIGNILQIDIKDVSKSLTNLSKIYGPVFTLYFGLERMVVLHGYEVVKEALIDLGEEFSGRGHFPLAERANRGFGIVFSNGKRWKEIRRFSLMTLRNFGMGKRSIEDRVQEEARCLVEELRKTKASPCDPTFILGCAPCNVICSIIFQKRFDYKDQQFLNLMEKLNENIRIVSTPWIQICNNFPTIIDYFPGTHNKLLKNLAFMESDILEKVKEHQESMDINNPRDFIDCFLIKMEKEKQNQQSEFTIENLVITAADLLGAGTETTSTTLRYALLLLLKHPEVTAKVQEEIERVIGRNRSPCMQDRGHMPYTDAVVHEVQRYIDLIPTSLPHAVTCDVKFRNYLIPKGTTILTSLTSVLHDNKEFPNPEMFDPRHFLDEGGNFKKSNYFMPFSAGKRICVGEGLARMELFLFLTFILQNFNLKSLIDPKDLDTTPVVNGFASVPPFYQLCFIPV
Chain of Topoisomerase IV (P0C1U9 whole entry): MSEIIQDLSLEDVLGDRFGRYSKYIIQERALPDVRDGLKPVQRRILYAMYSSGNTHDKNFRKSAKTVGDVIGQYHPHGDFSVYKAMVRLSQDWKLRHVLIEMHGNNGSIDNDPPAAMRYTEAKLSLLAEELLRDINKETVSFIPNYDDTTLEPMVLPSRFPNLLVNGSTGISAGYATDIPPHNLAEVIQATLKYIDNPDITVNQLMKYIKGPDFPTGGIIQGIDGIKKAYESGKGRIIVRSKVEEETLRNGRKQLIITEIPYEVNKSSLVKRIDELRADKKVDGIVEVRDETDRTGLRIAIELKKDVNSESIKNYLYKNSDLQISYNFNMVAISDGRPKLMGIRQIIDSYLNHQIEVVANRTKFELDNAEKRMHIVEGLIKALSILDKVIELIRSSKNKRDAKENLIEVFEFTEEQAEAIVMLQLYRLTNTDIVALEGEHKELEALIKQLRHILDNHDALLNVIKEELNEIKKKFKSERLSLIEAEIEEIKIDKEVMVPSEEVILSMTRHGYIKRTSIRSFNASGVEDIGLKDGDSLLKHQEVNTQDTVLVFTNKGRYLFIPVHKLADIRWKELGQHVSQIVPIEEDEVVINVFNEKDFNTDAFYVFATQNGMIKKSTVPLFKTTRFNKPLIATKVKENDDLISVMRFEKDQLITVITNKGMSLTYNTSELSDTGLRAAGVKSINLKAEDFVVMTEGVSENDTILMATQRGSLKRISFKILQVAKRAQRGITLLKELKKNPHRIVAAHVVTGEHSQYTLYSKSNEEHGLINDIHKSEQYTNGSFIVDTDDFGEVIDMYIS
Chain of Topoisomerase IV (P0C1S7 whole entry): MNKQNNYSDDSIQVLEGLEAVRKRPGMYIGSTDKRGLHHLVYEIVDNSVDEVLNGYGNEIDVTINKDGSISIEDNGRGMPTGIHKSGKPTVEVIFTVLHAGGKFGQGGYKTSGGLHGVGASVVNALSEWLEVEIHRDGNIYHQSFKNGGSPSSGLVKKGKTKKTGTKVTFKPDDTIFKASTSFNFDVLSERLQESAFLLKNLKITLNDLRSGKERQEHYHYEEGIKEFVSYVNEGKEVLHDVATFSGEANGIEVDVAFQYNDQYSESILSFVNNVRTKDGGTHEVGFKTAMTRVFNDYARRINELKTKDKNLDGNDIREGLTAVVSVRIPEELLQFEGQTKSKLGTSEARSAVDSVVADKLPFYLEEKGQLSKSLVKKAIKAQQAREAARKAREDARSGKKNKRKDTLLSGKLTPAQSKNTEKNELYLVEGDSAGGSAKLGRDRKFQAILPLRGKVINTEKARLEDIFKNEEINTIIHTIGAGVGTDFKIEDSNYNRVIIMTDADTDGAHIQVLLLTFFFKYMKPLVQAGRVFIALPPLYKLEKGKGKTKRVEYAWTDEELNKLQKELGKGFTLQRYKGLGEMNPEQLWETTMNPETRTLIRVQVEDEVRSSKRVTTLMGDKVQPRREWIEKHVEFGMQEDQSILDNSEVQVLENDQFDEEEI

Compound | MIC (Escherichia coli) | MIC (Staphylococcus aureus) | further results
N#Cc1cnn2ccc(=O)n(CCN3CCC(NCc4cc5c(cn4)OCCC5)CC3)c12 | 2 µg/mL (≈ 4.61 µM) | 2 µg/mL (≈ 4.61 µM) | 
c1ccc2c(c1)Sc1ccccc1N2CCN1CCC(NCc2cc3c(cn2)OCCC3)CC1 | > 16 µg/mL | 16 µg/mL (≈ 33.9 µM) | 
CCOC(=O)C1COc2ccc(CNC3CCN(CCn4c(=O)ccc5ccc(C#N)cc54)CC3)cc2O1 (stereo not drawn) | > 16 µg/mL | > 16 µg/mL | 
N#Cc1ccc2ccc(=O)n(CCN3CCC(NCc4ccc5c(c4)OC(C(=O)O)CO5)CC3)c2c1 (stereo not drawn) | > 16 µg/mL | > 16 µg/mL | 
CCOC(=O)C1COc2cc(CNC3CCN(CCn4c(=O)ccc5ccc(C#N)cc54)CC3)ccc2O1 (stereo not drawn) | > 16 µg/mL | > 16 µg/mL | 
N#Cc1ccc2ccc(=O)n(CCN3CCC(NCc4ccc5c(c4)OCC(=O)N5)CC3)c2c1 | > 16 µg/mL | > 16 µg/mL | 
N#Cc1ccc2ccc(=O)n(CCN3CCC(NCc4ccc5c(c4)NC(=O)CO5)CC3)c2c1 |  |  | inhibition (INH) (Cytochrome P450 2C19): Not Active; inhibition (INH) (Cytochrome P450 2D6): Not Active; pIC50 (DNA gyrase): 8.47; inhibition (INH) (Cytochrome P450 1A2): Not Active; pIC50 (Topoisomerase IV): 5.89; inhibition (INH) (Cytochrome P450 3A4): Not Active; inhibition (INH) (Cytochrome P450 2C8): Not Active
N#Cc1ccc2ccc(=O)n(CCN3CCC(NCc4ccc5c(c4)CCCO5)CC3)c2c1 | 0.25 µg/mL (≈ 0.565 µM) | < 0.125 µg/mL | 
O=S1(=O)c2ccccc2-c2ccccc2N1CCN1CCC(NCc2cc3c(cn2)OCCC3)CC1 | > 16 µg/mL | > 16 µg/mL | 
O=c1c2ccccc2c2ncccc2n1CCN1CCC(NCc2cc3c(cn2)OCCC3)CC1 | > 16 µg/mL | 2 µg/mL (≈ 4.26 µM) | 
N#Cc1ccc2ccc(=O)n(CCN3CCC(NCc4ccc5c(c4)OCCO5)CC3)c2c1 |  | < 0.125 µg/mL | inhibition (INH) (Cytochrome P450 2C19): Not Active; inhibition (INH) (Cytochrome P450 2D6): Not Active; pIC50 (DNA gyrase): 7.36; inhibition (INH) (Cytochrome P450 1A2): Not Active; pIC50 (Topoisomerase IV): 6.05; inhibition (INH) (Cytochrome P450 3A4): Not Active; inhibition (INH) (Cytochrome P450 2C8): Not Active
N#Cc1ccc2ccc(=O)n(CCN3CCC(NCc4cc5c(cn4)OCCC5)CC3)c2c1 | 0.5 µg/mL (≈ 1.13 µM) | 0.125 µg/mL (≈ 0.282 µM) | 
c1ccc2c(c1)-c1ccccc1C2CCN1CCC(NCc2cc3c(cn2)OCCC3)CC1 | > 16 µg/mL | > 16 µg/mL | 
N#Cc1ccc2ccc(=O)n(CCN3CCC(NCc4ccc5c(c4)NC(=O)CS5(=O)=O)CC3)c2c1 | > 16 µg/mL | > 16 µg/mL | 
CN1C(=O)COc2ccc(CNC3CCN(CCn4c(=O)ccc5ccc(C#N)cc54)CC3)cc21 | 16 µg/mL (≈ 33.9 µM) | 8 µg/mL (≈ 17 µM) | 
N#Cc1ccc2ccc(=O)n(CCN3CCC(NCc4ccc5c(c4)OCC(C(=O)O)O5)CC3)c2c1 (stereo not drawn) | > 16 µg/mL | > 16 µg/mL | 
O=S1(=O)C=Cc2ccccc2N1CCN1CCC(NCc2cc3c(cn2)OCCC3)CC1 | > 16 µg/mL | > 16 µg/mL | 
O=c1ccc2ccc(C(F)(F)F)cc2n1CCN1CCC(NCc2cc3c(cn2)OCCC3)CC1 | 2 µg/mL (≈ 4.11 µM) | 0.125 µg/mL (≈ 0.257 µM) | 
O=S1(=O)c2ccccc2N(CCN2CCC(NCc3cc4c(cn3)OCCC4)CC2)c2ccccc21 | > 16 µg/mL | > 16 µg/mL | 
c1ccc2c(c1)c1ccccc1n2CCN1CCC(NCc2cc3c(cn2)OCCC3)CC1 | > 16 µg/mL | > 16 µg/mL | 
CN1C(=O)C(C)(C)Oc2ccc(CNC3CCN(CCn4c(=O)ccc5ccc(C#N)cc54)CC3)cc21 | > 16 µg/mL | > 16 µg/mL | 
N#Cc1ccc2ccc(=O)n(CCN3CCC(NCc4ccc5c(c4)CCCC5)CC3)c2c1 | 1 µg/mL (≈ 2.27 µM) | < 0.125 µg/mL | 
O=c1ccn2nccc2n1CCN1CCC(NCc2cc3c(cn2)OCCC3)CC1 | 8 µg/mL (≈ 19.6 µM) | 2 µg/mL (≈ 4.9 µM) | 
O=c1ccc2ccccc2n1CCN1CCC(NCc2cc3c(cn2)OCCC3)CC1 | 16 µg/mL (≈ 38.2 µM) | 1 µg/mL (≈ 2.39 µM) | 
O=c1c2ccccc2c2ccccc2n1CCN1CCC(NCc2cc3c(cn2)OCCC3)CC1 | > 16 µg/mL | 1 µg/mL (≈ 2.13 µM) | 
O=c1ccc2ncc(=O)n3c2n1C[C@H]3CN1CCC(NCc2cc3c(cn2)OCCC3)CC1 [GEPOTIDACIN] | 0.5 µg/mL (≈ 1.11 µM) | 0.25 µg/mL (≈ 0.557 µM) | solubility [1]: 580 µg/mL (≈ 1290 µM); MRT [2]: 1.4 h; Tmax [3]: 2 h; fraction unbound [4]: 0.67; Vd [5]: 5 L/kg; bioavailability [6]: 24%; AUC(0-t) [7]: 176 ng·h/mL; Cmax [8]: 90 ng/mL; solubility [9]: 663 µg/mL (≈ 1480 µM); MIC90 (Pseudomonas aeruginosa): 32 µg/mL (≈ 71.3 µM); C0 [10]: 724 ng/mL; AUC(0-t) [11]: 244 ng·h/mL; MIC90 (Acinetobacter baumannii): 64 µg/mL (≈ 143 µM); clearance [12]: 60 mL/min/kg; half-life [13]: 1.7 h
